# Source: ChEMBL document CHEMBL1165911, “Elaborate ligand-based pharmacophore exploration and QSAR analysis guide the synthesis of novel pyridinium-based potent beta-secretase inhibitory leads” (Bioorg Med Chem, 2010)
# Square brackets hold non-standard residues; d marks the D form. Peptide text beside a SMILES is read from it. * marks the point of attachment. ξ: configuration not given here. Cbz = O=C(OCc1ccccc1)*; ξV = CC(C)C(N)C(=O)O
# Target: Beta-secretase 1 (Homo sapiens, UniProt P56817)
# Sequence (P56817 whole entry): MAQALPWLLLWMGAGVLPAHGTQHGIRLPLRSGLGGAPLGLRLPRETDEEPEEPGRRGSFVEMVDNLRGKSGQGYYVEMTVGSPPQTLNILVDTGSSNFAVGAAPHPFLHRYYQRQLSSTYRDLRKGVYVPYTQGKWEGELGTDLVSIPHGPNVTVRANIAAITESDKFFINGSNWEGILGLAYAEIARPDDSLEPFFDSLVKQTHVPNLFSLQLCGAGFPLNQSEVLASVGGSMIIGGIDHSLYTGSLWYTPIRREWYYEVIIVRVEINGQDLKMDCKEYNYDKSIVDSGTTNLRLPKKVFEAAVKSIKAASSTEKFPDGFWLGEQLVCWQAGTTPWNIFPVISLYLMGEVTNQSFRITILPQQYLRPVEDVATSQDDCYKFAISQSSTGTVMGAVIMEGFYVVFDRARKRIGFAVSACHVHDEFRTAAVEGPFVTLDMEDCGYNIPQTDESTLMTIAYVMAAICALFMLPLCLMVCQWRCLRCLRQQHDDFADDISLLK
row,Compound,IC50
1,Clc1nc(NCCN2CCOCC2)nc(NCc2ccc(I)cc2)n1,100 µM
2,C[C@@H](NC(=O)c1cc(C(=O)N[C@@H](Cc2ccccc2)[C@H](O)CNC2CC2)cc(N(C)S(=O)(=O)N(C)C)c1)c1ccccc1,14 µM
3,COc1cccc(C(=O)OCC(=O)NCc2ccc(Cl)cc2Cl)c1O,500 µM
4,CCOC(=O)C(Cc1ccc(O)cc1)NS(=O)(=O)c1ccc2c(c1)C(=O)c1ccccc1C2=O (stereo unspecified),100 µM
5,Clc1ccc(/C=N/Nc2nc(Nc3ccccc3)nc(Nc3ccccc3)n2)cc1Cl,100 µM
6,CCCCc1ccc(Nc2nc3ccccc3nc2NS(=O)(=O)c2ccc(Cl)cc2)cc1,100 µM
7,CC(C)C(NC(=O)CNC(=O)CNC(=O)OCc1ccccc1)C(=O)O (stereo not drawn) (Cbz-Gly-Gly-[ξV]-OH),500 µM
8,CCOc1cc(C2C(C(=O)OCc3ccccc3)=C(C)NC3=C2C(=O)CC(C)(C)C3)cc(Br)c1O (stereo unspecified),100 µM
9,O=C(O)c1cc(-c2ccc(/C=N/Nc3nc(Nc4ccc(F)cc4)nc(N4CCOCC4)n3)o2)ccc1Cl,7.1 µM
10,Cc1cccc(N(C)S(=O)(=O)c2ccc3ncc(C(=O)NCCN4CCOCC4)c(O)c3c2)c1,100 µM
11,O=C(Nc1cc(Br)ccc1N1CCN(Cc2ccccc2)CC1)c1cccc2ccccc12,5 µM
12,CCCc1cc(=O)oc2cc(OCC(=O)NCC(=O)NCC(=O)O)ccc12,500 µM
13,Cc1ccc(C)c(Nc2nc(N/N=C/c3cc(Br)c(O)c(Br)c3C)nc(N3CCOCC3)n2)c1,81.8 µM
14,CN(C)c1nc(N/N=C/c2cc(I)cc(I)c2O)nc(N2CCOCC2)n1,100 µM
15,O=C(NCc1ccc(Cl)cc1)c1ccc(N2CC3CC(C2)c2cccc(=O)n2C3)c(NS(=O)(=O)c2ccc3c(c2)OCCO3)c1 (stereo unspecified),100 µM
16,CCN1CCN(CCNC(=O)c2ccc3c(=O)n(Cc4ccc(Cl)cc4)c(=S)[nH]c3c2)CC1,100 µM
17,NS(=O)(=O)c1ccc(CCNC(=O)CCc2nc3sc4c(c3c(=O)[nH]2)CCCC4)cc1,100 µM
18,Cc1cc(C)nc(NS(=O)(=O)c2ccc(Nc3nc(-c4ccc(C(C)C)cc4)cs3)cc2)n1,1000 µM
19,Cc1ccc(Nc2nc(CN3CCOCC3)nc(N/N=C/c3cc(Br)cc(Br)c3O)n2)cc1,48.1 µM
20,Clc1ccc(/C=N/Nc2nc(NCc3ccc(Cl)cc3)nc(N3CCOCC3)n2)cc1,100 µM
21,Cc1ccc(CNC(=O)c2ccc(N3CC4CC(C3)c3cccc(=O)n3C4)c(NS(=O)(=O)c3ccc4c(c3)OCCO4)c2)cc1 (stereo unspecified),100 µM
22,CC1CCCCN1CCNC(=O)c1cc(=O)[nH]c2ccc(S(=O)(=O)N3CCOCC3)cc12 (stereo unspecified),100 µM
23,FC(F)(Cl)Oc1ccc(Nc2nc(NCc3ccccc3)nc(N3CCCCC3)n2)cc1,100 µM

row,Compound,IC50
1,COc1nc(NCCN2CCOCC2)nc(Nc2ccc(I)cc2)n1,100 µM
2,CC1CCCCN1CCNC(=O)c1cc(=O)[nH]c2ccc(S(=O)(=O)N3CCCCC3)cc12 (stereo unspecified),100 µM
3,C=CCn1c(SCC(=O)Nc2ccc(S(N)(=O)=O)cc2)nc2sc3c(c2c1=O)CCCC3,100 µM
4,Cc1c(CC(=O)N[C@H](CCCNC(N)=O)C(=O)O)c(=O)oc2c(C)c(O)ccc12,500 µM
5,CC(NC(=O)NCCNC(=O)NC(C)C(=O)O)C(=O)O (stereo unspecified),500 µM
6,O=C(O)CC(NNc1nc(NCCO)nc(N2CCOCC2)n1)c1ccccc1 (stereo unspecified),500 µM
7,O=C(Nc1ccc(Cl)c(C(F)(F)F)c1)C(NS(=O)(=O)c1cccs1)c1ccccc1 (stereo unspecified),100 µM
8,CCc1cc(=O)oc2c(C)c(OC(=O)NCC(=O)NCC(=O)O)ccc12,500 µM
9,C[C@H](NC(=O)c1cc(OCC(=O)NCCCCCN)cc(OS(=O)(=O)Cc2ccccc2)c1)c1ccccc1,100 µM
10,COc1cccc2cc(C(=O)Nc3cc(Br)ccc3N3CCN(Cc4ccccc4)CC3)c(=O)oc12,5 µM
11,Cc1oc(-c2ccccc2)cc1C(=O)NCC(=O)NC(C(=O)O)C(C)C (stereo unspecified),500 µM
12,COc1ccc(C(=O)Nc2ccccc2C(=O)NC(CCSC)C(=O)NNC(=O)Sc2nc3ccccc3s2)cc1 (stereo unspecified),50 µM
13,O=C(NCCc1ccc(Cl)cc1)c1ccc(Cn2c(=S)[nH]c3ccc(N4CCOCC4)cc3c2=O)cc1,100 µM
14,CC(=O)Nc1cc(C(=O)NCc2cc(F)cc(Cl)c2)ccc1Sc1ccc(Cl)cc1,100 µM
15,CCc1ccc(N2C(=O)Nc3ccc(Br)cc3C2(O)C(=O)NCC(C)CN2CCC(C)CC2)cc1 (stereo unspecified),100 µM
16,Cc1ccc(C)c(Nc2nc(N/N=C/c3cc(Br)cc(Br)c3O)nc(N3CCOCC3)n2)c1,100 µM
17,CCCc1cc(=O)oc2c(C)c(OCC(=O)NCC(=O)NCC(=O)O)ccc12,100 µM
18,Cc1ccc(Nc2nc(N/N=C/c3ccc(Cl)c(Cl)c3)nc(N3CCOCC3)n2)c(Cl)c1,100 µM
19,CCSc1sc(CC)cc1C1C(C(=O)Nc2ccc(C)cn2)=C(C)NC2=C1C(=O)CC(C)(C)C2 (stereo unspecified),100 µM
20,C[C@@H](NC(=O)c1cc(C(=O)N[C@@H](Cc2ccccc2)[C@H](O)CNC(C)(C)C)cc(N(C)S(C)(=O)=O)c1)c1ccc(F)cc1,15 µM
21,NS(=O)(=O)c1ccc(NC(=O)CSc2nnc(-c3ccccc3)c(-c3ccccc3)n2)cc1,100 µM
22,O=C(NCCc1ccc(Cl)cc1)C1CCC(CNc2nc(=S)[nH]c3ccccc23)CC1 (stereo unspecified),100 µM
23,O=C(O)c1cc(-c2ccc(/C=N/Nc3nc(Nc4ccc(F)cc4)nc(N4CCCCC4)n3)o2)ccc1O,27.9 µM

row,Compound,IC50
1,C[C@@H](NC(=O)c1cc(C(=O)N[C@@H](Cc2ccccc2)[C@H](O)CN)cc(N(C)S(C)(=O)=O)c1)c1ccc(F)cc1,23 µM
2,COc1cccc2cc(C(=O)Nc3cc(Br)ccc3N3CCOCC3)c(=O)oc12,10 µM
3,Cc1cc(O)c2c(C)c(CC(=O)N[C@H](CCCNC(N)=O)C(=O)O)c(=O)oc2c1,500 µM
4,NNC(=O)CN1C(CN2CCOCC2)=Nc2ccc(Br)cc2C1c1ccccc1 (stereo unspecified),100 µM
5,COc1cc2[nH]c(=O)n(Cc3ccc(C(=O)NCc4ccc(C)cc4)cc3)c(=O)c2cc1OC,100 µM
6,CCc1ccc(Sc2c(N)c3c(c(N)c2Sc2ccc(CC)cc2)C(=O)c2ccccc2C3=O)cc1,253 µM
7,COc1ccc(OC)c(/N=c2\oc3c(C)ncc(CO)c3cc2C(=O)Nc2ccc(Cl)cc2)c1,100 µM
8,O=C(NCc1ccccc1)c1c[nH]c2ccc(S(=O)(=O)NC3CCCCNC3=O)cc2c1=O (stereo unspecified),100 µM
9,Cc1cc(Br)c(Nc2nc(CN3CCOCC3)nc(N/N=C/c3cc(I)cc(C)c3O)n2)cc1Cl,100 µM
10,Oc1ccc(-c2ccccc2)cc1CN1CCN(Cc2cc(-c3ccccc3)ccc2O)CC1,100 µM
11,Oc1c(I)cc(I)cc1/C=N/Nc1nc(Nc2cccc3ccccc23)nc(N2CCOCC2)n1,100 µM
12,O=C1CSC(c2ccc(Cl)cc2)N1Nc1nc(Nc2ccccc2)nc(N2CCCCC2)n1 (stereo unspecified),100 µM
13,Cc1ccc(NC(=O)c2cc(NC(=O)CCCC(=O)O)ccc2N2CCOCC2)cc1,500 µM
14,C[C@@H](NC(=O)c1cc(NS(C)(=O)=O)cc(C(=O)N[C@@H](Cc2ccccc2)[C@H](O)CNC2CC2)c1)c1ccc(F)cc1,63 µM
15,CCN1CCCC1CNC(=O)c1ccc2c(=O)n(Cc3cccc(Br)c3)c(=S)[nH]c2c1 (stereo unspecified),100 µM
16,CCOc1cc(/C=N\NC(=O)COc2ccc(C)cc2)cc(I)c1O,100 µM
17,COc1cc(/C=N\NC(=O)c2ccccc2OCCOc2ccccc2)cc(Br)c1O,500 µM
18,CCc1ccc(N2C(=O)Nc3ccc(Br)cc3C2(O)C(=O)NCc2ccccc2)cc1 (stereo unspecified),100 µM
19,COc1cc(/C=N/Nc2nc(Nc3ccc(F)cc3)nc(N3CCCCC3)n2)ccc1OCC(=O)O,100 µM
20,Cc1ccc(Nc2nc(N/N=C/c3cccc(Br)c3)nc(N3CCOCC3)n2)cc1,100 µM
21,CCOc1nc(NCCN2CCOCC2)nc(NNc2ccc(I)cc2C)n1,11.9 µM
22,O=C(CC1Sc2ccccc2NC1=O)Nc1ccccc1SC(F)(F)C(F)(F)C(F)(F)F (stereo unspecified),100 µM
23,Cc1c(CC(=O)N[C@H](CCCNC(N)=O)C(=O)O)c(=O)oc2cc(O)ccc12,500 µM

row,Compound,IC50
1,O=C(NCc1ccccc1Cl)c1ccc(N2CC3CC(C2)c2cccc(=O)n2C3)c(NS(=O)(=O)c2ccc3c(c2)OCCO3)c1 (stereo unspecified),100 µM
2,O=C(NCCc1ccccc1)c1c[nH]c2ccc(S(=O)(=O)N3CCc4ccccc4C3)cc2c1=O,100 µM
3,CCN1CCCC1CNC(=O)c1ccc2c(=O)n(Cc3ccc(Cl)cc3)c(=S)[nH]c2c1 (stereo unspecified),100 µM
4,CC1CCN(S(=O)(=O)c2ccc3[nH]c(=O)cc(C(=O)NCCCN4CCCC4)c3c2)CC1,100 µM
5,O=C(NCc1ccc(F)cc1)c1ccc(N2CC3CC(C2)c2cccc(=O)n2C3)c(NS(=O)(=O)c2ccc3c(c2)OCCO3)c1 (stereo unspecified),100 µM
6,O=C(Nc1cc(Br)ccc1N1CCOCC1)c1cccc2ccccc12,20 µM
7,O=C(CN1CCN(Cc2ccccc2)CC1)N/N=C\c1cc(I)cc(I)c1O,100 µM
8,CC(C)S(=O)(=O)N(C)c1cc(C(=O)N[C@@H](Cc2ccccc2)[C@H](O)CNC2CC2)cc(C(=O)N[C@H](C)c2ccccc2)c1,41 µM
9,O=C(Nc1ccc(Cl)cc1C(=O)c1ccccc1)c1ccc(Nc2nc(-c3ccccc3)c3cc(Br)ccc3n2)cc1,100 µM
10,CCSc1scc(CC)c1C1C(C(=O)Nc2ccc(Br)cn2)=C(C)NC2=C1C(=O)CC(C)(C)C2 (stereo unspecified),100 µM
11,CC(C)(C)OC(=O)N1CCN(c2ccc(Br)cc2NC(=O)c2cccc3ccccc23)CC1,1 µM
12,C[C@@H](NC(=O)c1cc(C(=O)N[C@@H](Cc2ccccc2)[C@H](O)CNC2CC2)cc(N(C)S(C)(=O)=O)c1)c1ccc(F)cc1,10 µM
13,CN(C)CCNC(=O)c1c[nH]c2ccc(S(=O)(=O)N3CCc4ccccc4C3)cc2c1=O,100 µM
14,O=C(O)c1cc(-c2ccc(/C=N/Nc3nc(Nc4ccccc4)nc(N4CCCCC4)n3)o2)ccc1Cl,152 µM
15,COc1ccc(-n2nc(C(=O)NCC(=O)Nc3cccc(C)n3)c3ccccc3c2=O)cc1Cl,100 µM
16,COc1cc(/C=N/Nc2nc(Nc3ccccc3)nc(N3CCOCC3)n2)cc(Br)c1O,100 µM
17,O=C(Nc1cc(Br)ccc1N1CCOCC1)c1cc2ccccc2oc1=O,10 µM
18,CCNC[C@@H](O)[C@H](Cc1ccccc1)NC(=O)c1cc(C(=O)N[C@H](C)c2ccc(F)cc2)cc(N(C)S(C)(=O)=O)c1,15 µM
19,CSc1ccc(C(O)C(CO)NC(=O)c2cc3c(n(-c4ccc(Cl)cc4)c2=O)CC(C)(C)CC3=O)cc1 (stereo unspecified),100 µM
20,COc1cccc2cc(C(=O)Nc3cc(Br)ccc3N3CCN(C(=O)OC(C)(C)C)CC3)c(=O)oc12,1 µM
21,O=C(Nc1ccccc1C(=O)NCC(O)CNC(=O)c1ccccc1NC(=O)c1ccccc1)c1ccccc1,100 µM
22,CCCCCCc1nc2ccccc2c(=O)n1NC(O)c1c(O)c2cccc3c2n(c1=O)CCC3 (stereo unspecified),100 µM
